{"source": "patent US10391070B2", "about": "“Compositions and methods for treating neurological diseases or injury” (MUSC FOUNDATION FOR RESEARCH DEVELOPMENT, priority 2012, dated 2019)", "key": {"[1]": {"system": "HT22 cells", "experiment": "Glutathione determination in glutamate-treated cells", "assay_type": "cell-based, mouse", "conditions": "HT22, 10 mM glutamate 8 hrs", "procedure": "The content of total glutathione (reduced and oxidized) in the supernatant of cell homogenate was measured using the glutathione assay kit (Cayman Chemical) in microtiter plate assay, which utilizes an enzymatic recycling method, using glutathione reductase, for the quantification of glutathione. The sulfhydryl group of glutathione reacted with 5,5′-dithiobis-2-nitrobenzoic acid (DTNB) and produced a yellow-colored 5-thio-2-nitrobenzoic acid (TNB), which was measured at 405 nm."}, "[2]": {"system": "HT-22 neuronal cells", "experiment": "Respirometry (OCR, ECAR; Seahorse XF-96)", "assay_type": "cell-based, mouse", "design": "ECAR (glycolysis), difference from control: unit not given here", "conditions": "HT-22 cells, mean±SEM", "procedure": "Oxygen consumption rates (OCR) and extracellular acidification rates (ECAR) of HT-22 neuronal cells were performed on the XF-96 Extracellular Flux Analyzer (Seahorse Bioscience) using standard methods (Beeson et al., 2010). In brief, cells were cultured in 96 well Seahorse plates in DMEM high glucose media (Invitrogen) supplemented with 10% FBS, 10 mM HEPES, and 1% antibiotic-antimycotic (Invitrogen). The media was replaced with DMEM media supplemented with 25 mM glucose, 10 mM sodium pyruvate, 31 mM NaCl, and 2 mM glutamine at pH 7.4. Each of the four drug ports on the Seahorse sensor cartridge were filled with test compound (media only, 5 μM NQN-1, 10 μM VK3 or 12.5 μM MB), 10 μM oligomycin, 1 μM FCCP, and 5 μM rotenone, which were injected into each well at 20, 80, 110, and 135 min, respectively. The pmol/min OCR rate for each well (9-52 wells/group) was measured. Wells were excluded from the analysis if their OCR values surpassed the Tukey Outlier Rule. In order to standardize the OCR rates across wells, the average OCR value at 17 min (last time point prior to injection of the test compounds) for each experimental group was calculated, and set to 100. All OCR values are given as a percentage of this pre-treatment value. […]"}, "[3]": {"system": "zebrafish larvae", "experiment": "Zebrafish larval toxicity (NOEC, lethal dose)", "assay_type": "in vivo", "conditions": "7 dpf zebrafish larvae; highest sub-lethal dose", "procedure": "Using a 96-well plate, one zebrafish larva (7 dpf) was placed in each well in 100 μL of tank water (TW). 100 μL of each compound (0.5-15 μM) was then added to each well for 12 animals (one row) to give a final volume of 200 […]. A control row was tested for DMSO toxicity effects. […] Each drug was assessed for the no observed effect concentration (NOEC), the highest non-lethal dose resulting in no apparent toxic effects.\nZebrafish (AB strain) were obtained from the Zebrafish International Resource Center (supported by P40 RR012546 from NIH-NCRR). Zebrafish were maintained and crossed according to standard methods (Westerfield, 2000). Fertilized eggs were collected and placed in E3 embryo medium and positioned in an incubator set at 28.5° C. with a 14/10 h light/dark cycle (Kimmel et al., 1995). To determine the lethal dose of each compound, 96-well plates containing one zebrafish (7 days post-fertilization, dpf) per well in 100 μL of tank water were used. 100 μL of each compound (0.5 to 15 μM) was added to each well for 12 animals (one row) for a final volume of 200 μL. One row of larvae was used as DMSO only controls. […] All zebrafish studies were approved by the Medical University of South Carolina Institutional Animal Care and Use Committee (AR #2850) and performed in accordance with the guidelines.\nUsing a 96-well plate, one zebrafish larva (7 dpf) was placed in each well in 100 μL of tank water. 100 μL of each compound was then added to each well for 12 animals (one row) for a final volume of 200 μL. One row of zebrafish larvae was used as DMSO only controls. […] Toxicity was also measured in the mouse model by the NIH Anticonvulsant Screening Program at the National Institute of Neurological Disorders and Stroke (Stables and Kupferberg, 1997), according to the established NIH experimental procedures. Compounds were delivered into mice by intraperitoneal (i.p.) injection at a dose of 100 mg/kg in sterile 5% DMSO, 95% Neobee (Josey et al., 2013). Acute toxicity was assessed by monitoring the animals for impaired neuromuscular function by placing treated mice on a rod rotating at 6 rpm. […]"}, "[4]": {"system": "PTZ-induced seizures", "experiment": "PTZ-induced seizure (swim activity) model in zebrafish larvae", "assay_type": "in vivo, zebrafish (Danio rerio)", "procedure": "The DanioVision locomotion tracking instrument with Ethovision XT software (Noldus) was used to measure the severity of the seizures by quantifying the locomotor activity of each fish.\nIn a 48-well plate, one 6-7 dpf larva was added per well. Compounds were given at a sub-lethal dose and treated for 1 h. Three control rows were included—tank water (TW) only, PTZ only and PTZ+VPA (2-4 mM final concentration of VPA). […] After 5 min, the plate was transferred to the Daniovision apparatus and the chamber light was turned on. After 2 min, Ethovision was used to determine the distance traveled (a marker of seizure of activity) by each fish for 15 min (25 frames per second). Velocity, duration of movement, and frequency of movement were also determined from the same recording. After measurement, fish were monitored visually for survival. The distance moved over the recording period with Ethovision XT software (Noldus) was averaged over 8 wells per treatment unless the fish was not detected.\nIn a 48-well plate, one 7 dpf zebrafish was added per well. Larvae were dosed with each compound at a sub-lethal dose 1 h prior to PTZ treatment. Three control rows were included with each experiment—tank water only control, PTZ only and PTZ+VPA (4 mM final concentration of VPA). […] After 5 min, the plate was transferred to the Daniovision instrument (Noldus Information Technology) and the chamber light was turned on. After 2 min, MediaRecorder (Noldus) was used to record video for 15 min. A small number of videos were acquired 25 frames per second, but the majority of the data was acquired at the frame rate of 60 frames per second. After recording, fish were monitored visually for survival. Ethovision XT software (Noldus) was used to track the fish movement from the video images in order to calculate the total distance traveled over 15 min. […] All experimental comparisons were made between animals from the same clutch."}, "[5]": {"system": "c-fos", "experiment": "c-fos gene expression in PTZ-treated zebrafish larvae", "assay_type": "in vivo, zebrafish (Danio rerio)", "conditions": "7 dpf zebrafish, pre-treatment", "procedure": "Ten 7 dpf larvae were placed in 500 μL tank water in wells of a 48-well cell-culture plate and appropriate concentrations of drugs were added as in the behavior study (Table 9). After a 1 h pre-incubation period, PTZ was added to a final concentration of 15 mM in appropriate wells and larvae were incubated for a further 45 min. Fish were quickly euthanized by incubating the plate in an ice-water bath for 15 min. Fish were removed from each well and all liquid removed before freezing at −80° C. RNA was extracted using Trizol (Invitrogen) followed by the RNeasy Mini kit (Qiagen). Frozen embryos were homogenized in 800 μL Trizol using in-tube pestles and a motorized homogenizer. Following a 5-min incubation at room temperature, 200 μL chloroform was added and the samples were centrifuged at 12,000 g for 10 min. The aqueous phase was transferred to a new tube and 250 μL 100% ethanol was added and the samples mixed. This mixture was then transferred to the Qiagen minicolumn assembly and the protocol followed as described with the kit. Samples were eluted in 30 μL RNase free water and concentration was determined using the Nanodrop instrument (Thermo Fisher). cDNA was prepared using the RETROscript kit (Ambion) with 500 ng total RNA. cDNA was then diluted 1:1 with sterile dH2O and 2.5 μL of this cDNA was used in the QPCR reaction with SsoAdvanced SYBR Green Supermix (BioRad) and c-fos primers designed to span an intron-exon junction (c-fos F: […], SEQ ID NO:9; c-fos R: […], SEQ ID NO:10) ([…] each) in the BioRad CFX96 RealTime instrument. L13a and EF1a gene expression were used for normalization (Rahn et al., 2013). The following cycle conditions were used: 95° C./3 min, 40 cycles of 95° C./15 s, 62° C./30 s, followed by 95° C. 30 s and a dissociation curve. Samples were run in duplicate. The 2^−ΔΔCt method was used to quantify gene expression, whereby all gene Ct values were first normalized to Ct values of the geometric mean of the Ct of L13a and EF1a (Livak and Schmittgen, 2001). Treated samples were then normalized to the tank water control and converted to fold change."}, "[6]": {"experiment": "Antioxidant activity assay (DPPH free radical scavenging)", "conditions": "20 μM, 100 μM DPPH in methanol", "procedure": "Antioxidant activity of various reagents was assayed as previously described by monitoring the disappearance of the optical absorbance of the stable-free radical DPPH on reaction with test compounds (Blois, 1958). The rate of the reaction represents the antioxidant potency of test agents. The known free radical scavenger Trolox and ascorbic acid were used as positive controls. Briefly, 10 μL of test reagents at final concentrations of 20 μM were added to 200 μL of 100 μM DPPH in methanol. Optical absorbance of DPPH at 517 nm was immediately monitored for 10 min."}, "[7]": {"system": "HT22 cells", "experiment": "t-BuOOH toxicity protection (MTS cell viability)", "assay_type": "cell-based, mouse", "conditions": "HT22, 50 μM t-BuOOH", "procedure": "Cell viability was assessed by the ability of the viable cells to metabolize 3-(4,5-dimethylthiazol-2-yl)-5-(3-carboxymethoxyphenyl)-2(4-sulfophenyl)2-H-tetrazolium, inner salt (MTS), as described previously (Cory et al., 1991). The metabolism of tetrazolium salts is often used to measure cellular proliferation, but in the system used here, it has been previously shown to correlate well with cell viability as determined by trypan blue exclusion and colony-forming assays (Davis and Maher, 1994). Briefly, HT-22 cells were seeded onto 96-well plates at 5.0×10^3 cells per well in 75 μL of medium and maintained at 37° C. in 5% CO2 overnight prior to the initiation of experimental treatments. For glutamate toxicity testing, cells were subsequently treated with 25 μL of medium containing glutamate (monosodium glutamate, Sigma, 1 M stock concentration in media, to achieve a final concentration of 10 mM) plus inhibitors (stock in DMSO) and maintained at 37° C. in 5% CO2. For t-BuOOH toxicity testing, cells were subsequently treated with 25 μL of medium containing t-BuOOH (Sigma, 10 mM stock concentration, to achieve a final concentration of 50 μM) plus inhibitors (stock in DMSO) and maintained at 37° C. in 5% CO2 for 3 hours, after which the media was removed, cells washed gently with HBSS, the media replaced with standard culture media, and the cells returned to incubation at 37° C. in 5% CO2. For both glutamate and t-BuOOH treatments, 10 μl of MTS solution was added to each well 24 hrs after initial treatment, and the cells were maintained in growth medium for 2 h at 37° C. Absorbance at 490 nm was subsequently measured by a SpectraMax 190 plate reader (Molecular Devices). The growth medium without cells in the presence of MTS solution was used as solution background and untreated cells were considered the controls. Cell viability was calculated as a percentage compared with untreated controls. EC50 determinations were based on 12-point titrations using GraphPad Prism, and each experiment was repeated at least four times. Morphology of HT22 cells following treatments was determined by phase-contrast microscopy. Digital images of cells grown on cell culture plates were captured at 10× magnification.\nIn light of the findings that the protection against glutamate induced cell death provided by VK2, 2q, and 2j, are at least partially mediated by the attenuation of the increased production of endogenous ROS, the inventors also examined the effects of these compounds on tert-butylhydroperoxide (t-BuOOH) induced cell death. t-BuOOH is a short chain analog of the lipid hydroperoxides formed from peroxidation reactions during oxidative stress that is cytotoxic to cells (Lemasters and Nieminen, 1997). […] It is well documented that cells undergo rapid and extensive fragmentation in the early stages of cell death (Bossy-Wetzel et al., 2003; Frank et al., 2001; Breckenridge et al., 2008; Jagasia et al., 2005; Lee et al., 2004). Recent studies have shown that mitochondrial fragmentation is regulated by the translocation of dynamin-related protein 1 (Drp1) from the cytosol to the mitochondria, where it assembles to form spirals at division sites (Smirnova et al., 2001). Although the exact molecular mechanism is still not well studied, the activity of Drp1 is regulated by the phosphorylation and dephosphorylation of specific serine residues by protein kinases and phosphatases such as calcineurin and the PGAM5 (Wang et al., 2012; Chang et al., 2007). […]"}}}
{"smiles": "COC1=C(OC)C(=O)C(CCCCCCCCCCO)=C(C)C1=O", "note": "[Ideb, Idebenone]", "values": [{"measurement": "depletion of total cellular GSH", "setting": "[1]; 5 μM", "value": "did not prevent GSH depletion"}]}
{"smiles": "CN(C)c1ccc2nc3ccc(=[N+](C)C)cc-3sc2c1.[Cl-]", "note": "[MB, reference compound]", "values": [{"measurement": "basal cellular respiration, difference in OCR from control", "setting": "[2]; 1 h treatment, OCR as percentage of pre-treatment value", "value": "53.21±5.92"}, {"measurement": "basal mitochondrial respiration, difference from control", "setting": "[2]; basal minus non-mitochondrial (rotenone)", "value": "19.22±6.54"}, {"measurement": "ATP-linked respiration, difference from control", "setting": "[2]; basal minus oligomycin", "value": "19.76±6.59"}, {"measurement": "ECAR (glycolysis), difference from control", "setting": "[2]", "value": "−0.86±1.26"}]}
{"smiles": "CN1C(=O)C(Cc2c[nH]c3ccccc23)NC1=S", "note": "(stereo not shown) [Nec-1, Necrostatin-1]", "values": [{"measurement": "depletion of total cellular GSH", "setting": "[1]; 50 μM", "value": "did not prevent GSH depletion"}]}
{"smiles": "CCCC(CCC)C(=O)O", "note": "[Valproic Acid (VPA), 2-n-propylpentanoic acid]", "values": [{"measurement": "Highest concentration tested for anti-seizure activity", "setting": "[3]", "value": 4, "unit": "mM"}, {"measurement": "required concentration for reduction of seizures", "setting": "[4]; PTZ-treated zebrafish larvae", "value": 4, "unit": "mM"}, {"measurement": "Seizure suppression", "setting": "[4]; PTZ-treated zebrafish larvae, pretreated 1 hr at NOEC", "value": "Yes"}, {"measurement": "PTZ-induced swim activity (distance traveled)", "setting": "[4]; zebrafish larvae, 1 h pretreatment at sub-lethal concentration (VPA 4 mM, NQN-1 3 μM), 15 mM PTZ", "value": "significantly reduced distance traveled compared to PTZ alone"}, {"measurement": "PTZ-induced increase in c-fos expression", "setting": "[5]", "value": "able to blunt this increase in expression"}]}
{"smiles": "O=C1O[C@H]([C@@H](O)CO)C(O)=C1O", "note": "[ascorbic acid]", "values": [{"measurement": "free radical scavenging capacity (DPPH absorbance)", "setting": "[6]", "value": "rapidly scavenged DPPH"}]}
{"smiles": "COC1=C(OC)C(=O)C(C/C=C(\\C)CC/C=C(\\C)CC/C=C(\\C)CC/C=C(\\C)CC/C=C(\\C)CC/C=C(\\C)CC/C=C(\\C)CC/C=C(\\C)CC/C=C(\\C)CCC=C(C)C)=C(C)C1=O", "note": "[co-enzyme Q10]", "values": [{"measurement": "protection from t-BuOOH induced cell death", "setting": "[7]", "value": "less effective"}]}
